Reference: patent publication US20040156869A1, “2-substituted quinazolin-4-ylamine analogues” (Neurogen Corporation, priority 2002, published 2004)

Biological target: human capsaicin receptor (VR1) (Homo sapiens, UniProt Q8NER1)
Experiment: Capsaicin receptor binding assay ([3H]RTX competition, VR1-transfected HEK293 membranes)

human capsaicin receptor (VR1), sequence (Q8NER1 whole entry): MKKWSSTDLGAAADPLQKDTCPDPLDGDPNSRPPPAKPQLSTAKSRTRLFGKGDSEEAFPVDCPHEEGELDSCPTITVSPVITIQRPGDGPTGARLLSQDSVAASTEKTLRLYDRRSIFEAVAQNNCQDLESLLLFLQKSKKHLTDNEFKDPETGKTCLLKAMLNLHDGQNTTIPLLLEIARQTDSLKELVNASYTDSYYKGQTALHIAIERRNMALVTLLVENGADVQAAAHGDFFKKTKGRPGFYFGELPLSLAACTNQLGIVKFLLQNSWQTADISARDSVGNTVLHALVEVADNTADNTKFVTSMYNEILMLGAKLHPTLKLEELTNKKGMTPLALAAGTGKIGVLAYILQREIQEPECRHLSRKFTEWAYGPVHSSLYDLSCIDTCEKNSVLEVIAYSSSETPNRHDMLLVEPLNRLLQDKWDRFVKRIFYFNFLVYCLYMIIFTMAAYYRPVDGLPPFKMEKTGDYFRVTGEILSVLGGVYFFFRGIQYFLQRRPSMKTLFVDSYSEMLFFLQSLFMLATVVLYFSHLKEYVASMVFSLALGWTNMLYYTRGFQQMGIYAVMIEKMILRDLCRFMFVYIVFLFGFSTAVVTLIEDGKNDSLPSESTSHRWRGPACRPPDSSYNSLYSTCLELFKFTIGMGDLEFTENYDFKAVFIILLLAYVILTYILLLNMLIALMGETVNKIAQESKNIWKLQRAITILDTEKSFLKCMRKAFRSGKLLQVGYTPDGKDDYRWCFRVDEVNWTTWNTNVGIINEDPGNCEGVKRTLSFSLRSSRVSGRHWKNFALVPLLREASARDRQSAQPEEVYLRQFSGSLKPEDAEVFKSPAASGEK

Ki, < 1 µM:
C[C@@H]1CN(Cc2nc(Nc3ccc(C(C)(C)C)cc3)c3ccc(-c4ncccc4Cl)cc3n2)C[C@@H](C)O1 [Compound 621, (R,R)-(4-tert-Butyl-phenyl)-[7-(3-chloro-pyridin-2-yl)-2-(2,6-dimethyl-morpholin-4-ylmethyl)-quinazolin-4-yl]-amine]
C[C@@H]1CN(Cc2nc(Nc3ccc(F)cc3)c3ccc(-c4ncccc4Cl)cc3n2)C[C@@H](C)O1 [Compound 622, (R,R)-(4-Fluoro-phenyl)-[7-(3-chloro-pyridin-2-yl)-2-(2,6-dimethyl-morpholin-4-ylmethyl)-quinazolin-4-yl]-amine]
CC(=O)c1ccc(Nc2nc(CN3C[C@@H](C)O[C@H](C)C3)nc3cc(-c4ncccc4Cl)ccc23)cc1 [Compound 623, (R,R)-1-{4-[7-(3-Chloro-pyridin-2-yl)-2-(2,6-dimethyl-morpholin-4-ylmethyl)-quinazolin-4-ylamino]-phenyl}-ethanone]
C[C@@H]1CN(Cc2nc(Nc3ccc(Cl)cc3)c3ccc(-c4ncccc4Cl)cc3n2)C[C@@H](C)O1 [Compound 624, (R,R)-(4-Chloro-phenyl)-[7-(3-chloro-pyridin-2-yl)-2-(2,6-dimethyl-morpholin-4-ylmethyl)-quinazolin-4-yl]-amine]
CC(C)c1ccc(Nc2nc(CN3C[C@@H](C)O[C@H](C)C3)nc3cc(-c4ncccc4Cl)ccc23)cc1 [Compound 625, (R,R)-(4-Isopropyl-phenyl)-[7-(3-chloro-pyridin-2-yl)-2-(2,6-dimethyl-morpholin-4-ylmethyl)-quinazolin-4-yl]-amine]
CCc1ccc(Nc2nc(CN3C[C@@H](C)O[C@H](C)C3)nc3cc(-c4ncccc4Cl)ccc23)cc1 [Compound 626, (R,R)-(4-Ethyl-phenyl)-[7-(3-chloro-pyridin-2-yl)-2-(2,6-dimethyl-morpholin-4-ylmethyl)-quinazolin-4-yl]-amine]
CCN1CCN(Cc2nc(Nc3ccc(C(F)(F)F)cc3)c3ccc(-c4ncccc4C(F)(F)F)cc3n2)CC1 [Compound 628, [2-(4-Ethyl-piperazin-1-ylmethyl)-7-(3-trifluoromethyl-pyridin-2-yl)-quinazolin-4-yl]-(4-trifluoromethyl-phenyl)-amine]
CC(C)Oc1ccc(Nc2nc(CN3C[C@@H](C)O[C@H](C)C3)nc3cc(-c4ncccc4Cl)ccc23)cn1 [Compound 629, (R,R)-[7-(3-Chloro-pyridin-2-yl)-2-(2,6-dimethyl-morpholin-4-ylmethyl)-quinazolin-4-yl]-(6-isopropoxy-pyridin-3-yl)-amine]
C[C@@H]1CN(Cc2nc(Nc3ccc(C#N)cc3)c3ccc(-c4ncccc4Cl)cc3n2)C[C@@H](C)O1 [Compound 630, (R,R)-4-[7-(3-Chloro-pyridin-2-yl)-2-(2,6-dimethyl-morpholin-4-ylmethyl)-quinazolin-4-ylamino]-benzonitrile]
CC(C)S(=O)(=O)c1ccc(Nc2nc(CN3C[C@@H](C)O[C@H](C)C3)nc3cc(-c4ncccc4Cl)ccc23)cc1 [Compound 631, (R,R)-[7-(3-Chloro-pyridin-2-yl)-2-(2,6-dimethyl-morpholin-4-ylmethyl)-quinazolin-4-yl]-[4-(propane-2-sulfonyl)-phenyl]-amine]
C[C@@H]1CN(Cc2nc(Nc3ccc(C(C)(C)C)nc3)c3ncc(-c4ncccc4Cl)cc3n2)C[C@H](C)O1 [Compound 632, (6-tert-Butyl-pyridin-3-yl)-[7-(3-chloro-pyridin-2-yl)-2-(2,6-dimethyl-morpholin-4-ylmethyl)-pyrido[3,2-d]pyrimidin-4-yl]-amine (cis)]
C[C@@H]1CN(Cc2nc(Nc3ccc(C(C)(C)C)cc3)c3ncc(-c4ncccc4Cl)cc3n2)C[C@H](C)O1 [Compound 633, (4-tert-Butyl-phenyl)-[7-(3-chloro-pyridin-2-yl)-2-(2,6-dimethyl-morpholin-4-ylmethyl)-pyrido[3,2-d]pyrimidin-4-yl]-amine (cis)]
CC1CN(Cc2nc(Nc3ccc(C(F)(F)F)cc3)c3ccc(-c4ncccc4Cl)cc3n2)CC(C)N1 (centres unmarked) [Compound 634, [7-(3-Chloro-pyridin-2-yl)-2-(3,5-dimethyl-piperazin-1-ylmethyl)-quinazolin-4-yl]-(4-trifluoromethyl-phenyl)-amine]
Cc1cccnc1-c1ccc2c(Nc3ccc(C(C)(C)C)cc3)nc(CN3C[C@@H](C)O[C@@H](C)C3)nc2c1 [Compound 635, (4-tert-Butyl-phenyl)-[2-(2,6-dimethyl-morpholin-4-ylmethyl)-7-(3-methyl-pyridin-2-yl)-quinazolin-4-yl]-amine (cis)]
C[C@@H]1CN(Cc2nc(Nc3ccc(C(C)(C)C)cc3)c3ccc(-c4ccccn4)cc3n2)C[C@H](C)O1 [Compound 636, (4-tert-Butyl-phenyl)-[2-(2,6-dimethyl-morpholin-4-ylmethyl)-7-pyridin-2-yl-quinazolin-4-yl]-amine (cis)]
Cc1cccc(-c2ccc3c(Nc4ccc(C(C)(C)C)cc4)nc(CN4C[C@@H](C)O[C@@H](C)C4)nc3c2)n1 [Compound 637, (4-tert-Butyl-phenyl)-[2-(2,6-dimethyl-morpholin-4-ylmethyl)-7-(6-methyl-pyridin-2-yl)-quinazolin-4-yl]amine (cis)]
COc1ccccc1-c1ccc2c(Nc3ccc(C(F)(F)F)cc3)nc(CN3C[C@@H](C)O[C@@H](C)C3)nc2c1 [Compound 638, [2-(2,6-Dimethyl-morpholin-4-ylmethyl)-7-(2-methoxy-phenyl)-quinazolin-4-yl]-(4-trifluoromethyl-phenyl)-amine (cis)]
CC(=O)c1ccccc1-c1ccc2c(Nc3ccc(C(F)(F)F)cc3)nc(CN3C[C@@H](C)O[C@@H](C)C3)nc2c1 [Compound 639, 1-{2-[2-(2,6-Dimethyl-morpholin-4-ylmethyl)-4-(4-trifluoromethyl-phenylamino)-quinazolin-7-yl]-phenyl}-ethanone (cis)]
CC(C)c1ccc(Nc2nc(CN3C[C@H](C)O[C@@H](C)C3)nc3cc(-c4ncccc4C(F)(F)F)ccc23)cc1 [Compound 640, (S,S)-[2-(2,6-Dimethyl-morpholin-4-ylmethyl)-7-(3-trifluoromethyl-pyridin-2-yl)-quinazolin-4-yl]-(4-isopropyl-phenyl)-amine]
CCc1ccc(Nc2nc(CN3C[C@H](C)O[C@@H](C)C3)nc3cc(-c4ncccc4C(F)(F)F)ccc23)cc1 [Compound 641, (S,S)-[2-(2,6-Dimethyl-morpholin-4-ylmethyl)-7-(3-trifluoromethyl-pyridin-2-yl)-quinazolin-4-yl]-(4-ethyl-phenyl)-amine]
C[C@H]1CN(Cc2nc(Nc3ccc(Cl)cc3)c3ccc(-c4ncccc4C(F)(F)F)cc3n2)C[C@H](C)O1 [Compound 642, (S,S)-(4-Chloro-phenyl)-[2-(2,6-dimethyl-morpholin-4-ylmethyl)-7-(3-trifluoromethyl-pyridin-2-yl)-quinazolin-4-yIl]amine]
CC(C)S(=O)(=O)c1ccc(Nc2nc(CN3C[C@H](C)O[C@@H](C)C3)nc3cc(-c4ncccc4C(F)(F)F)ccc23)cc1 [Compound 643, (S,S)-[2-(2,6-Dimethyl-morpholin-4-ylmethyl)-7-(3-trifluoromethyl-pyridin-2-yl)-quinazolin-4-yl]-[4-(propane-2-sulfonyl)-phenyl]-amine]
C[C@H]1CN(Cc2nc(Nc3ccc(Cl)cc3)c3ccc(-c4ncccc4Cl)cc3n2)C[C@H](C)O1 [Compound 644, (S,S)-(4-Chloro-phenyl)-[7-(3-chloro-pyridin-2-yl)-2-(2,6-dimethyl-morpholin-4-ylmethyl)-quinazolin-4-yl]-amine]
CC(C)S(=O)(=O)c1ccc(Nc2nc(CN3C[C@H](C)O[C@@H](C)C3)nc3cc(-c4ncccc4Cl)ccc23)cc1 [Compound 645, (S,S)-[7-(3-Chloro-pyridin-2-yl)-2-(2,6-dimethyl-morpholin-4-ylmethyl)-quinazolin-4-yl]-[4-(propane-2-sulfonyl)-phenyl]-amine]
CC(C)S(=O)(=O)c1ccc(Nc2nc(CN3CCO[C@@H](C)C3)nc3cc(-c4ncccc4Cl)ccc23)cc1 [Compound 646, (S)-[7-(3-Chloro-pyridin-2-yl)-2-(2-methyl-morpholin-4-ylmethyl)-quinazolin-4-yl]-[4-(propane-2-sulfonyl)-phenyl]-amine]
C[C@H]1CN(Cc2nc(Nc3ccc(C(C)(C)C)cc3)c3ccc(-c4ncccc4Cl)cc3n2)CCO1 [Compound 647, (S)-(4-tert-Butyl-phenyl)-[7-(3-chloro-pyridin-2-yl)-2-(2-methyl-morpholin-4-ylmethyl)-quinazolin-4-yl]-amine]
CC(C)c1ccc(Nc2nc(CN3CCO[C@@H](C)C3)nc3cc(-c4ncccc4Cl)ccc23)cc1 [Compound 648, (S)-[7-(3-Chloro-pyridin-2-yl)-2-(2-methyl-morpholin-4-ylmethyl)-quinazolin-4-yl]-(4-isopropyl-phenyl)-amine]
C[C@H]1CN(Cc2nc(Nc3ccc(C(C)(C)C)cc3)c3ccc(-c4ncccc4Cl)cc3n2)C[C@H](C)O1 [Compound 649, (S,S)-(4-tert-Butyl-phenyl)-[7-(3-chloro-pyridin-2-yl)-2-(2,6-dimethyl-morpholin-4-ylmethyl)-quinazolin-4-yl]-amine]
CC(C)c1ccc(Nc2nc(CN3C[C@H](C)O[C@@H](C)C3)nc3cc(-c4ncccc4Cl)ccc23)cc1 [Compound 650, (S,S)-[7-(3-Chloro-pyridin-2-yl)-2-(2,6-dimethyl-morpholin-4-ylmethyl)-quinazolin-4-yl]-(4-isopropyl-phenyl)-amine]
